Experimental data reported in patent US20190008897A1, “COMPOSITIONS AND METHODS FOR PRODUCING PRO-INFLAMMATORY MACROPHAGES” (UNIVERSITY OF WASHINGTON, priority 2015, published 2019).

What was measured:
bEnd.3 endothelial cells = assay: Endothelial cell activation by MΦ-cTLR4 conditioned media (flow cytometry for VCAM-1 and ICAM-1); type: cell-based, mouse; settings: media from MΦ-cTLR4 treated 6 h (TNFα 20 ng/mL, CID 50 nM); bEnd.3 incubated 12 h
Protocol: MΦ-cTRL4 conditioned media, following a 6 hour treatment in 6-well plates (1×10^6 cells/well), was transferred to plated bEnd.3 cells in a 12-well plate (0.2×10^6 cells/well). Before media transfer, TNFα neutralizing and IgG isotype antibody (1 μg/mL) were incubated in media for 15 minutes. Media was then added to bEnd.3 cells for 12 hours. Following incubation, bEnd.3 cells were trypsinized and stained for ICAM-1 and VCAM-1. Cell cytometry was performed on a FACSCanto II Cell Analyzer (BD Biosciences) equipped with 488 nm and 647 nm lasers. Typically, 10,000 cells were analyzed per sample. Experiments were repeated at least three times. Non-specific staining was evaluated using a monoclonal antibody for IgG2b and IgG2a (eBioscience).

[1] = system: IRF3 phosphorylation in MΦ-cTLR4 cells; assay: Western blot for p-IRF3 and total IRF3 (MyD88-independent pathway); type: cell-based, murine; settings: CID 50 nM, LPS 100 ng/mL; compared to vehicle
Protocol: (§1) Protein from RAW264.7, MΦ-T2A (vector control cells), and MΦ-cTLR4 cell monolayers were extracted by lysis in Laemmli buffer containing 1× Halt Protease Inhibitor cocktail (Thermo Scientific). Following lysis, samples were boiled and protein concentration was determined by performing a BCA assay from Thermo Scientific. Samples (10-30 μg of lysates) were run on 4-20% Mini-PROTEAN® TGX precast polyacrylamide gels (Bio-Rad). Protein from gels were transferred onto PVDF membranes and probed with the appropriate primary antibody overnight. Membranes were washed between each antibody incubation and subsequently probed with the appropriate HRP-conjugated secondary antibody (Life Technologies). The Clarity Western ECL Substrate (Bio-Rad) was used to detect bands.
To determine if the MΦ-cTLR4 cells were signaling through the MyD88-independent pathway, we tested for phosphorylated IRF3. […] The IRF3 phosphorylation of the CID- and LPS-treated MΦ-cTLR4 cells starts to decrease following the 2 hour timepoint and subsequently reaches similar levels as vehicle at the 6 and 12 hour timepoints.

MΦ-cTLR4 cells [2] = assay: Cytokine profile (ELISA of supernatants) of MΦ-cTLR4 cells; type: cell-based, murine
Protocol: We tested IL-6 and TNFα concentrations in supernatants of transduced RAW264.7 cells in vitro. Briefly, MΦ-cTLR4 cells (1×106) were plated in each well of a 6-well plate and treated with vehicle (100% EtOH), LPS (100 ng/mL), CID drug (50 nM), or left untreated in DMEM without serum. Supernatants were collected and tested using the mouse IL-6 ELISA Ready-SET-Go! and the mouse TNFα ELISA Ready-SET-Go! Kits (eBioscience) according to the manufacturer's instructions. Plates were read at 450 nm with a 570 nm wavelength subtraction, normalized to standard solutions, and concentrations (pg/mL) were calculated.

MΦ-cTLR4 cells [3] = assay: Western blot for iNOS in MΦ-cTLR4 cells; type: cell-based, murine; settings: 24 h treatment; CID 50 nM, LPS 100 ng/mL
Protocol: as §1

MΦ-cTLR4 cells [4] = assay: ELISA for VEGF-A in MΦ-cTLR4 medium; type: cell-based, murine; settings: for VEGF expression compared to controls: single treatment (FIG. 22A)
Protocol: In order to determine if the MΦ-cTLR4 cells were expressing the key angiogenic molecule VEGF-A, an ELISA was performed to test for VEGF-A levels in MΦ-cTLR4 medium following various treatments (FIG. 22A). […] Since studies have shown human and rat MΦs express increased VEGF with IFN-γ treatment, the response was also tested with this factor.

[5] = system: ERK1/2 phosphorylation in MΦ-cTLR4 cells; assay: Western blot for p-ERK and total ERK (MyD88-dependent pathway); type: cell-based, murine; settings: 0 to 60 minutes; CID 50 nM, LPS 100 ng/mL
Protocol: as §1
Following LPS stimulation and subsequent TNFα production, the TLR4 pathway leads to activation of NF-κB and the three MAPK pathways through the MyD88-dependent pathway. Both NF-κB and MAPK pathways directly control the transcription of the IL-6 and iNOS inflammatory genes, as well as control the mRNA stability of those transcripts. For the activated MΦ-cTLR4 cells, ERK1/2 phosphorylation is expected if the MyD88 dependent pathway and subsequent downstream TRAF6 activation has occurred. […]

[6] = system: MΦ-cTLR4 cells in Matrigel plug; assay: In vivo Matrigel plug with MΦ-cTLR4 cells; parameters: species or system BALB/c mice; settings: 14 day; CID drug 2 mg/kg intraperitoneal every other day; s.c. Matrigel plug
Protocol: Four groups of 4 week old female BALB/c mice (total of 16 mice) were used in this in vivo study. The four groups consisted of: 7 day non-treated mice, 7 day CID-treated mice, 14 day non-treated mice, and 14 day CID-treated mice. At day of injection, pre-plated MΦ-cTLR4 cells were lifted off and counted. 0.5×10^6 cells were s.c. injected mixed in with Matrigel into the right back dorsal area of the mouse. Before placing mouse back in cage, mice were injected with the first intraperitoneal CID drug dose (2 mg/kg mouse weight). Treatment groups were given CID drug injections every other day during the course of the experiment (FIG. 20).

[7] = system: MΦ-cTLR4 cells co-cultured with rat aortic ECs (RAECs); assay: Co-culture tube formation (angiogenesis) assay; type: cell-based; settings: CID 50 nM or LPS 100 ng/mL added to the medium
Source text: Untreated MΦ-cTLR4 cells co-cultured with rat aortic ECs (RAECs), with no added factors to the medium, had the least amount of isolated segments, the least amount of branches, and the most amount of branching interval.

[8] = system: NF-κB promoter in MΦ-cTLR4 cells; assay: Dual-Luciferase NF-κB reporter assay; type: cell-based, murine; settings: CID 50 nM, 4 hours; compared to vehicle
Protocol: Two hundred thousand cells/well were seeded in 24-well plates. The following day each well was transfected with a total of 0.8 μg plasmid DNA, which consisted of a 20:1 ratio of pBllX-LUC (NFκB reporter construct):pRL (Renilla luciferase construct). The promoterless pGL4.10 vector was also transfected in a 20:1 ratio of pGL4.10:pRL, as a control. Transfections of each well were performed with 2 μL Lipofectamine 2000 (Invitrogen). The following morning transfection reagents were replaced with fresh serum-free medium and treated with either vehicle (100% EtOH) or CID drug (50 nM) for 4 hours. Cell lysate was harvested and luciferase activity was measured using a Dual-Luciferase® reporter assay kit (Promega) according to manufacturer's instructions. All groups were normalized to Renilla luciferase.

[9] = 24 h treatment, CID drug 50 nM, compared to uninduced controls

CC[C@H](C(=O)N1CCCC[C@H]1C(=O)O[C@H](CCc1ccc(OC)c(OC)c1)c1cccc(OCC(=O)NCC(CNC(=O)COc2cccc([C@@H](CCc3ccc(OC)c(OC)c3)OC(=O)[C@@H]3CCCCN3C(=O)[C@@H](CC)c3cc(OC)c(OC)c(OC)c3)c2)CN(C)C)c1)c1cc(OC)c(OC)c(OC)c1 [CID drug, AP20187]
EC positive for ICAM-1 (bEnd.3 endothelial cells): 64.4%
EC positive for VCAM-1 (bEnd.3 endothelial cells): 93.7%
time of activation peak of p-IRF3/total IRF3 ratio [1]: 2 h
time to upregulation of key pro-inflammatory markers after CID drug addition (MΦ-cTLR4 cells [2]): 6 h
IL-6 levels (MΦ-cTLR4 cells [2]; [9]): increased
TNFα levels (MΦ-cTLR4 cells [2]; [9]): increased
time IL-6 levels stayed activated (MΦ-cTLR4 cells [2]; constant CID drug (50 nM) in media): 72 h
time elevated levels of TNFα, IL-6 and iNOS are maintained (MΦ-cTLR4 cells [2]; constant CID drug (50 nM) in media, changed every 24 h): at least 48 hours
dose producing the maximum activation of MΦ-cTLR4 cells (IL-6 ELISA) (MΦ-cTLR4 cells [2]; titration 50 nM-250 nM, 24 h treatment): at least 50 nM
iNOS expression (130 kDa band) (MΦ-cTLR4 cells [3]): much lower intensity than the LPS-treated cells
VEGF expression compared to controls (MΦ-cTLR4 cells [4]): significantly decreased amounts of VEGF
ERK1/2 phosphorylation (p-ERK/total ERK ratio relative to zero timepoint) [5]: upregulation of ERK1/2 phosphorylation at the 5 minute timepoint
co-localization of GFP MΦ-cTLR4 cells and iNOS regions in plug [6]: occurrences of GFP/iNOS co-localization
branching interval vs untreated co-cultures [7]: smaller branching interval
isolated segments [7]: slightly more isolated segments than the untreated group
number of branches vs untreated co-cultures [7]: much more branches
number of master segments compared to the control [7]: not significantly different
NF-κB promoter activation (luciferase activity normalized to Renilla) [8]: increased NF-κB promoter activation

lipopolysaccharides [LPS]
time of activation peak of p-IRF3/total IRF3 ratio [1]: 2 h
iNOS expression (130 kDa band) (MΦ-cTLR4 cells [3]): substantial increase in iNOS expression
VEGF expression compared to controls (MΦ-cTLR4 cells [4]): significantly decreased amounts of VEGF
branching interval vs untreated co-cultures [7]: smaller branching interval
isolated segments [7]: highest number of isolated segments
number of branches vs untreated co-cultures [7]: much more branches
number of master segments compared to the control [7]: not significantly different

B1: TNFα: recombinant mouse TNFα purchased from Sigma (protein)
chain: LRSSSQNSSDKPVAHVVANHQVEEQLEWLSQRANALLANGMDLKDNQLVVPADGLYLVYSQVLFKGQGCPDYVLLTHTVSRFAISYQEKVNLLSAVKSPCPKDTPEGAELKPWYEPIYLGGVFQLEKGDQLSAEVNLPKYLDFAESGQVYFGVIAL
EC positive for ICAM-1 (bEnd.3 endothelial cells): 57.2%
EC positive for VCAM-1 (bEnd.3 endothelial cells): 93.5%

B2: IFN-γ: cytokine IFN-γ used to treat MΦ-cTLR4 cells (protein, UniProt P01580 23-155, looked up)
Interferon gamma: HGTVIESLESLNNYFNSSGIDVEEKSLFLDIWRNWQKDGDMKILQSQIISFYLRLFEVLKDNQAISNNISVIESHLITTFFSNSKAKKDAFMSIAKFEVNNPQVQRQAFNELIRVVHQLLPESSLRKRKRSRC
VEGF compared to the control, IFN-γ alone or in cocktail (MΦ-cTLR4 cells [4]; IFN-γ alone or cocktail with CID or LPS (FIG. 22B)): significant decrease in VEGF
